The target in assay [1] is Cy5-labelled Mcl1 (amino acids 171-321) C286S protein (UniProtKB Q07820) (Homo sapiens (Human), UniProt Q07820, C286S). As to the kind of experiment: Inhibition of Mcl-1 by the fluorescence quenching assay (Example A, Method B). It counts as binding. In outline:
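Eleven-point compound series incubated 2 h at room temperature with 1 nM Cy5-tagged protein and quencher-labelled PUMA peptide at 10, 20 or 400 nM in HEPES/NaCl/Tween 20, pH 7.4, 5% DMSO. IC50 for 50% fluorescence increase by 4-parameter fit, then Ki derived (complete cKi or estimated eKi).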

For the next assay, the system named is NCI-H929 cell lines. The experiment in a line: In vitro cytotoxicity, CellTiter-Glo (CTG) assay (Example B, Method B). Type of assay: cell-based. The conditions noted are these: Homo sapiens, NCI-H929, 48 h, NCI-H929 cells, 48 h incubation, read-out: C50. The method, then: Cellular viability was monitored with the cell viability assay (Cell Titer-Glo®) on NCI-H929 cell lines. The CellTiter-Glo® (CTG) Luminescent Cell Viability Assay (from Promega) is a homogeneous method to determine the number of viable cells in culture based on quantitation of the ATP present, which signals the presence of metabolically active cells.
Concentration response of test compounds are performed with 10 mM stock solutions (DMSO), 11-points curve, in a 384-well compound plate. The assay plate is prepared by stamping 120 nL from compound dilution plate of all different concentrations (e.g. 10 mM to have final 30 μM assay test) into a cell culture microplate, using Echo acoustic liquid handling (Labcyte, Beckman). 40 μl of cell solution is added and cells are incubated with compounds for 48 h at 37° C., 5% CO2. CTG was added to the cells (according to the manufacturer instructions) and luminescence intensity was recorded using the Pherastar plate reader (BMG).
This assay provides in vitro cellular efficacy of compounds of Formula (I) tested, measuring the C50, defined as the concentration needed to reach 50% of the cellular viability.

Read-outs that look alike come from different tables or passages of the source.

Chain of Cy5-labelled Mcl1 (amino acids 171-321) C286S protein (Q07820 171-321 C286S): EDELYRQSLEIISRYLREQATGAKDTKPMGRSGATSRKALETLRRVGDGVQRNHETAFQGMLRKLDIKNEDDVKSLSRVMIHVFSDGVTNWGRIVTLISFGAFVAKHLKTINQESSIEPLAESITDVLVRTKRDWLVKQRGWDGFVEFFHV

The term Ki denotes a measure of affinity in units of concentration, obtained from inhibition or displacement. On to `Cc1ccc2c(c1)CN(C[C@@H](C)COc1ccnc3c1[C@H](C)CCC3)[C@]21CC[C@](Nc2cccc(Cl)c2C)(C(=O)O)CC1` [Example 53, (1s,4S)-4-(3-chloro-2-methylanilino)-5′-methyl-2′-[(2R)-2-methyl-3-{[(5R)-5-methyl-5,6,7,8-tetrahydroquinolin-4-yl]oxy}propyl]-2′,3′-dihydrospiro[cyclohexane-1,1′-isoindole]-4-carboxylic acid], for which the Ki in assay [1] (Ki determined from IC50) is 1.5 nM. Besides, the IC50 with NCI-H929 cell lines is 451 nM.

With `Cc1ccc2c(c1)CN(C[C@@H](C)COc1ccnc3c1[C@H](C)CCC3)[C@]21CC[C@](Nc2ccc(F)c(Cl)c2)(C(=O)O)CC1` [Example 54, (1s,4S)-4-(3-chloro-4-fluoroanilino)-5′-methyl-2′-[(2R)-2-methyl-3-{[(5R)-5-methyl-5,6,7,8-tetrahydroquinolin-4-yl]oxy}propyl]-2′,3′-dihydrospiro[cyclohexane-1,1′-isoindole]-4-carboxylic acid], the Ki in assay [1] (Ki determined from IC50) is 0.177 nM. Moreover, the IC50 in the assay with NCI-H929 cell lines worked out at 177 nM.

Regarding `Cc1ccc2c(c1)CN(C[C@@H](C)COc1ccnc3c1[C@H](C)CCC3)[C@]21CC[C@](Nc2cccc(Cl)c2)(C(=O)O)CC1` [Example 55, (1s,4S)-4-(3-chloroanilino)-5′-methyl-2′-[(2R)-2-methyl-3-{[(5R)-5-methyl-5,6,7,8-tetrahydroquinolin-4-yl]oxy}propyl]-2′,3′-dihydrospiro[cyclohexane-1,1′-isoindole]-4-carboxylic acid], the Ki in assay [1] (Ki determined from IC50) is 0.104 nM. Further, the IC50 in the assay with NCI-H929 cell lines turned out to be 181 nM.

With `C[C@@H](COc1ccnc2c1[C@H](C)CCC2)CN1Cc2cc(Cl)ccc2[C@]12CC[C@@](Nc1cccc(Cl)c1)(C(=O)O)CC2` [Example 56, (1s,4S)-5′-chloro-4-(3-chloroanilino)-2′-[(2R)-2-methyl-3-{[(5R)-5-methyl-5,6,7,8-tetrahydroquinolin-4-yl]oxy}propyl]-2′,3′-dihydrospiro[cyclohexane-1,1′-isoindole]-4-carboxylic acid], the Ki in assay [1] (Ki determined from IC50) was 0.762 nM. Further, the IC50 in the assay on NCI-H929 cell lines was found to be 151 nM.

For `C[C@@H](COc1ccnc2c1[C@H](C)CCC2)C[C@H]1Cc2ccccc2[C@]12CC[C@@](Nc1cccc(Cl)c1)(C(=O)O)CC2` [Example 653, (1r,2′S,4S)-4-(3-chloroanilino)-2′-[(2R)-2-methyl-3-{[(5R)-5-methyl-5,6,7,8-tetrahydroquinolin-4-yl]oxy}propyl]-2′,3′-dihydrospiro[cyclohexane-1,1′-indene]-4-carboxylic acid], in assay [1], the Ki is 0.282 nM. The IC50 in the assay with NCI-H929 cell lines amounted to 113 nM.

Turning to `C[C@@H](COc1ccnc2c1[C@H](C)CCC2)C[C@H]1Cc2ccccc2[C@]12CC[C@@](Nc1ccc(F)c(Cl)c1F)(C(=O)O)CC2` [Example 707, (1r,2′S,4S)-4-(3-chloro-2,4-difluoroanilino)-2′-[(2R)-2-methyl-3-{[(5R)-5-methyl-5,6,7,8-tetrahydroquinolin-4-yl]oxy}propyl]-2′,3′-dihydrospiro[cyclohexane-1,1′-indene]-4-carboxylic acid], the Ki in assay [1] amounted to 0.585 nM. The IC50 in the assay with NCI-H929 cell lines was found to be 230 nM.

With `C[C@@H](COc1ccnc2c1[C@H](C)CCC2)C[C@H]1Cc2ccccc2[C@]12CC[C@@](Nc1ccc(Cl)c(Cl)c1)(C(=O)O)CC2` [Example 715, (1r,2′S,4S)-4-(3,4-dichloroanilino)-2′-[(2R)-2-methyl-3-{[(5R)-5-methyl-5,6,7,8-tetrahydroquinolin-4-yl]oxy}propyl]-2′,3′-dihydrospiro[cyclohexane-1,1′-indene]-4-carboxylic acid], in assay [1], the Ki was found to be 2.01 nM. Besides, in the assay on NCI-H929 cell lines, the IC50 is 1290 nM.

Turning to `C[C@@H](COc1ccnc2c1[C@H](C)CCC2)C[C@H]1Cc2ccccc2[C@]12CC[C@@](Oc1cccc(Cl)c1)(C(=O)O)CC2` [Example 717, (1r,2′S,4S)-4-(3-chlorophenoxy)-2′-[(2R)-2-methyl-3-{[(5R)-5-methyl-5,6,7,8-tetrahydroquinolin-4-yl]oxy}propyl]-2′,3′-dihydrospiro[cyclohexane-1,1′-indene]-4-carboxylic acid], the inhibition constant Ki in assay [1] was found to be 2.28 nM. The IC50 with NCI-H929 cell lines turned out to be 367 nM.

Take `C[C@@H](COc1ccnc2c1[C@H](C)CCC2)CC1=Cc2c(Cl)c(Cl)ccc2[C@]12CC[C@@](Nc1cccc(Cl)c1)(C(=O)O)CC2` [Example 750, (1r,4R)-4′,5′-dichloro-4-(3-chloroanilino)-2′-[(2R)-2-methyl-3-{[(5R)-5-methyl-5,6,7,8-tetrahydroquinolin-4-yl]oxy}propyl]spiro[cyclohexane-1,1′-indene]-4-carboxylic acid]: in assay [1], the Ki worked out at 1.06 nM. Further, in the assay with NCI-H929 cell lines, the IC50 came out at 378 nM.

Take `C[C@@H](COc1ccnc2c1[C@H](C)CCC2)C[C@H]1Cc2cccc(F)c2[C@]12CC[C@@](Nc1cccc(Cl)c1)(C(=O)O)CC2` [Example 763, (1r,2′S,4S)-4-(3-chloroanilino)-7′-fluoro-2′-[(2R)-2-methyl-3-{[(5R)-5-methyl-5,6,7,8-tetrahydroquinolin-4-yl]oxy}propyl]-2′,3′-dihydrospiro[cyclohexane-1,1′-indene]-4-carboxylic acid]: the Ki in assay [1] worked out at 0.0813 nM. The IC50 in the assay with NCI-H929 cell lines was determined as 118 nM.

As for `C[C@@H](COc1ccnc2c1[C@H](C)CCC2)C[C@H]1Cc2cc(F)c(F)cc2[C@]12CC[C@@](Nc1cccc(Cl)c1)(C(=O)O)CC2` [Example 775, (1r,2′S,4S)-4-(3-chloroanilino)-5′,6′-difluoro-2′-[(2R)-2-methyl-3-{[(5R)-5-methyl-5,6,7,8-tetrahydroquinolin-4-yl]oxy}propyl]-2′,3′-dihydrospiro[cyclohexane-1,1′-indene]-4-carboxylic acid], in assay [1], the Ki was 0.518 nM. In the assay with NCI-H929 cell lines, the IC50 is 84.4 nM.

Turning to `C[C@@H](COc1ccnc2c1[C@H](C)CCC2)C[C@H]1Cc2cc(Cl)ccc2[C@]12CC[C@@](Nc1cccc(Cl)c1)(C(=O)O)CC2` [Example 778, (1r,2′S,4S)-5′-chloro-4-(3-chloroanilino)-2′-[(2R)-2-methyl-3-{[(5R)-5-methyl-5,6,7,8-tetrahydroquinolin-4-yl]oxy}propyl]-2′,3′-dihydrospiro[cyclohexane-1,1′-indene]-4-carboxylic acid], the Ki in assay [1] was 0.177 nM. Moreover, in the assay on NCI-H929 cell lines, the IC50 was 67.2 nM.

On to `COc1ccc2c(c1)[C@]1(CC[C@@](Nc3cccc(Cl)c3)(C(=O)O)CC1)[C@H](C[C@@H](C)COc1ccnc3c1[C@H](C)CCC3)C2` [Example 782, (1r,2′R,4R)-4-(3-chloroanilino)-6′-methoxy-2′-[(2R)-2-methyl-3-{[(5R)-5-methyl-5,6,7,8-tetrahydroquinolin-4-yl]oxy}propyl]-2′,3′-dihydrospiro[cyclohexane-1,1′-indene]-4-carboxylic acid], for which the Ki in assay [1] is 0.254 nM. In addition, the IC50 in the assay with NCI-H929 cell lines was 235 nM.

With `CCOc1ccc2c(c1)[C@]1(CC[C@@](Nc3ccc(F)c(Cl)c3)(C(=O)O)CC1)[C@@H](C[C@@H](C)COc1ccnc3c1[C@H](C)CCC3)C2` [Example 785, (1r,2′S,4S)-4-(3-chloro-4-fluoroanilino)-6′-ethoxy-2′-[(2R)-2-methyl-3-{[(5R)-5-methyl-5,6,7,8-tetrahydroquinolin-4-yl]oxy}propyl]-2′,3′-dihydrospiro[cyclohexane-1,1′-indene]-4-carboxylic acid], in assay [1], the Ki turned out to be 0.122 nM. Also, the IC50 in the assay with NCI-H929 cell lines was found to be 61 nM.

With `CCCOc1ccc2c(c1)[C@]1(CC[C@@](Nc3cccc(Cl)c3)(C(=O)O)CC1)[C@@H](C[C@@H](C)COc1ccnc3c1[C@H](C)CCC3)C2` [Example 787, (1r,2′S,4S)-4-(3-chloroanilino)-2′-[(2R)-2-methyl-3-{[(5R)-5-methyl-5,6,7,8-tetrahydroquinolin-4-yl]oxy}propyl]-6′-propoxy-2′,3′-dihydrospiro[cyclohexane-1,1′-indene]-4-carboxylic acid], the Ki in assay [1] was 0.0573 nM. Moreover, the IC50 with NCI-H929 cell lines stood at 103 nM.

With `CC(C)COc1ccc2c(c1)[C@]1(CC[C@@](Nc3cccc(Cl)c3)(C(=O)O)CC1)[C@@H](C[C@@H](C)COc1ccnc3c1[C@H](C)CCC3)C2` [Example 788, (1r,2′S,4S)-4-(3-chloroanilino)-2′-[(2R)-2-methyl-3-{[(5R)-5-methyl-5,6,7,8-tetrahydroquinolin-4-yl]oxy}propyl]-6′-(2-methylpropoxy)-2′,3′-dihydrospiro[cyclohexane-1,1′-indene]-4-carboxylic acid], in assay [1], the Ki stood at 0.241 nM. Also, in the assay with NCI-H929 cell lines, the IC50 was 262 nM.

In the case of `C[C@@H](COc1ccnc2c1[C@H](C)CCC2)C[C@H]1Cc2ccc(OC3CCCC3)cc2[C@]12CC[C@@](Nc1cccc(Cl)c1)(C(=O)O)CC2` [Example 789, (1r,2′S,4S)-4-(3-chloroanilino)-6′-(cyclopentyloxy)-2′-[(2R)-2-methyl-3-{[(5R)-5-methyl-5,6,7,8-tetrahydroquinolin-4-yl]oxy}propyl]-2′,3′-dihydrospiro[cyclohexane-1,1′-indene]-4-carboxylic acid], the Ki in assay [1] is 0.135 nM. Moreover, the IC50 in the assay with NCI-H929 cell lines was determined as 270 nM.

(Values after patent US20240150293A1, “SPIROCYCLOHEXANE DERIVATIVES, PHARMACEUTICAL COMPOSITIONS CONTAINING THEM AND THEIR USES AS ANTI-APOPTOTIC INHIBITORS” (LES LABORATOIRES SERVIER, priority 2021, published 2024).)
